Test results taken from PMC12090182, “Repurposing of the RIPK1-Selective Benzo[1,4]oxazepin-4-one Scaffold for the Development of a Type III LIMK1/2 Inhibitor” (ACS Chemical Biology, 2025).
Read-outs that look alike come from different tables or passages of the source.

Key:
CSNK2A2 = CSNK2A2 (Homo sapiens, UniProt P19784); experiment: DSF selectivity screening; format: binding; conditions: 10 μM compound
Experimental: The assay was performed as previously described.[29],[35] Briefly, recombinant protein kinase domains at a concentration of 2 μM were mixed with a 10 μM compound in a buffer containing 20 mM HEPES, pH 7.5, and 500 mM NaCl. SYPRO Orange (5000×, Invitrogen) was added as a fluorescence probe (1 μL per mL). Subsequently, temperature-dependent protein unfolding profiles were measured using a QuantStudio 5 real-time PCR machine (Thermo Fisher). Excitation and emission filters were set to 465 and 590 nm, respectively. The temperature was raised with a step rate of 3 °C per minute. Data points were analyzed with internal software (Thermal Shift Software version 1.4, Thermo Fisher) using the Boltzmann equation to determine the inflection point of the transition curve (Table S4).

HEK293T cells = format: cell-based; conditions: human, 10 µM
Outline: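 HEK293T and U2OS cells (DMEM) and MRC-9 fibroblasts (EMEM) exposed to compounds at 1 and 10 μM. Live-cell confocal imaging of cell shape and fluorescence before and at 12, 24 and 48 h. Normalized to 0.1% DMSO; biological duplicates with SEM.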

Chain of CSNK2A2 (P19784 1-334): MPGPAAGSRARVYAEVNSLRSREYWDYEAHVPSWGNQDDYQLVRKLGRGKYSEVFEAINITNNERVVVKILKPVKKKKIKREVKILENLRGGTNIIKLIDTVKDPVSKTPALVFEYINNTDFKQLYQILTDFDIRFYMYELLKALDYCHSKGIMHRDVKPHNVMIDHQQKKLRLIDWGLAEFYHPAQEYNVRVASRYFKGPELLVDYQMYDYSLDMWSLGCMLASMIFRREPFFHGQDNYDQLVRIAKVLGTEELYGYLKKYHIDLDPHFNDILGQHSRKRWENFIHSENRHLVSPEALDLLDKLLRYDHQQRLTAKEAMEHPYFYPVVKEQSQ

CN1C(=O)[C@@H](N2CCc3c(C(N)=O)nn(Cc4ccccc4)c3C2=O)COc2ccccc21 [Compound 11]
ΔTm at 10 µM (CSNK2A2): 2.2 °C | Population with membrane disruption (%) (HEK293T cells; 0 h): 0.00% | Population with membrane disruption (%) (HEK293T cells; 12 h): 0.00% | Population with membrane disruption (%) (HEK293T cells; 24 h): 0.00%
